Data as given in US20240002424A1, “HEXOSAMINE COMPOUNDS AND METHODS THEREOF” (National Institute of Immunology, priority 2021, published 2024).

How the values were obtained:
Type in all cases: cell-based, human
[1] = test system: HL-60 cells; test: Binding of mouse E-selectin-Fc chimera (mCD62E) to cells by flow cytometry; details: 50 μM, 72 h
Protocol: Effect of HexNAc analogues on the expression of E-selectin ligands: HL-60 cells (3.0×10^5 cells/mL in 2.5 mL complete medium in 6-well plates) were incubated with D, 1a, 1b, or 1d (50 mM), along with untreated controls. After 72 h, cells were harvested and washed with PBS (3×0.5 mL). Prior to the last wash, cells were counted and aliquoted into 5.0×10^5 cells per sample. Cells were stained with mCD62E-Fc chimera protein (10 mg/mL) in PBS (50 mL) at 4° C. After 1.0 h, cells were washed with PBS (2×0.5 mL) and stained with PEconjugated F(ab′)2 goat anti-human Fc in PBS (50 mL) at 4° C. After 1.0 h, cells were washed with PBS (2×0.5 mL) and resuspended in 0.85% saline (0.2 mL) containing Sytox Red (dilution 1:1000; stock concentration of 5.0 mM). Additionally, control samples of cells treated with only the secondary antibody were prepared. Two replicate samples were analyzed for each condition and each sample was counted twice by flow cytometry as mentioned above.

[2] = test system: HL-60 cells; test: Far-western blot of total lysates with biotinylated MAL-II; details: HL-60 lysates; 50 μM, 72 h
Protocol: After 72 h, cells were harvested and lyzed in RIPA buffer containing PIC. Protein concentration in the soluble fraction was estimated using Bradford assay, subjected to 10% SDS-PAGE, blotted onto nitrocellulose membranes (constant current 250 mA, 3 h, 4° C.). Membranes were blocked using 2% w/v gelatin (5.0 mL) in 0.1% PBS-T at room temperature. After 1h, membranes were incubated with either bMAL-II (1:2000, stock conc. 1.0 mg/mL) or bSNA (1:5000, stock conc. 2.0 mg/mL) in 0.1% PBS-T (5.0 mL) at room temperature. After 1 h, membranes were washed using 0.1% PBS-T (6×5.0 mL, 5.0 min), followed by incubation with HRPconjugated avidin (1:50000, stock conc. 2.0 mg/mL) in 0.1% PBS-T (5.0 mL). After 30 min, membranes were washed using 0.1% PBS-T (6×5.0 mL, 5.0 min). Blots were developed using enhanced chemiluminescence substrate and photographic films. Blots using anti-β-actin (as mentioned above) were performed in parallel as loading controls. At least two independent replicate experiments were performed.

[3] = test system: HL-60 cells; test: SNA lectin binding on intact cells by flow cytometry; details: 50 μM, 24 h
[4] = test system: HL-60 cells; test: Total and glycoside bound sialic acids by periodate-resorcinol assay; details: 100 μM, 48 h
Protocol: Total sialic acids were measured following reported procedures. HL-60 cells (3.0×10^5 cells/mL in 10 mL complete medium in 10 cm diameter Petri dishes) were incubated with D, 1a, 1b, 1c, 1d, 1e, 1f, 1g, 2a, or 2b (100 mM each), along with untreated (U) controls. After 48 h, cells were harvested, washed with PBS (3×5.0 mL; 3000×g, for 2.0 min), aliquoted to 2×10^6 cells per sample and resuspended in PBS (150 mL) in 1.5 mL microcentrifuge tubes. Cells were lyzed by three freeze-thaw cycles and the total lysates were subjected to periodate-resorcinol assay. Briefly, lysates (150 mL) were treated with 0.4 M aqueous periodic acid (6.67 mM) or (2.5 mL) and incubated either on ice for 15 min (for measurement of total sialic acids) or at 37° C. for 1.0 h (for measurement of glycoconjugate bound sialic acids). About 10 mL of reagent cocktail was prepared using 6% w/v of aqueous resorcinol (1.0 mL), 2.5 mM copper (II) sulfate (1.0 mL), 44% of concentrated hydrochloric acid (4.4 mL), and water (3.6 mL). The mixture was then treated with the reagent cocktail (250 mL per sample), boiled at 100° C. for 10 min, rapidly quenched in an ice-bath and treated with tert-butanol (250 mL). The contents were centrifuged and the supernatants were aliquoted (200 mL) into 96-well plates and the absorbance at 630 nm was measured. At least three replicates were prepared for each condition.

[5] = test system: HL-60 cells; test: NeuAz expression by SPAAC with DBCO-Cy5 and flow cytometry, competition with 1c; details: 50 μM with 1c 50 μM, 24 h
Protocol: Estimation of NeuAz expression by 1c in the presence of peracetylated ManNAc analogues: Jurkat cells (3.0×10^5 cells/mL in 3.0 mL per well in 6-well plates) were incubated with (i) D, (ii) 1a, 1b, 1c, or 1d alone (50 mM) or (iii) 1a, 1b, or 1d (50 mM) in combination with 1c (50 mM). After 24 h, cells were harvested, washed using FSB, aliquoted to 5.0×10^5 cells per sample, and processed as mentioned above for estimation of NeuAz expression using DBCO-Cy5 ([…]). Experiments using HL-60 cells were performed using the same procedure.
Having confirmed metabolic acceptability in Jurkat cells, the compounds were tested on HL-60 (human acute myeloid leukemia) cells which are a reliable model for neutrophil adhesion. The effect on competitive suppression of NeuAz expression was studied using 1c as a reporter. HL-60 cells were treated with 1c either alone (50 μM) or in combination with ManNAc analogues (50 μM), including the straight chain derivatives, for 24 h followed by DBCO-Cy5 ligation. […] The decreasing ability of linear alkyl moieties (1d-1g), as a function of chain length, for suppression of NeuAz expression is in contrast to the cycloalkyl moieties. […] Similarly, 1a induced a reduction of 40% compared to only a 15% reduction by 1f.

SMILES: CC(=O)OC[C@H]1O[C@H](OC(C)=O)[C@@H](NC(=O)C2CC2)[C@@H](OC(C)=O)[C@@H]1OC(C)=O [Compound 1a, 1,3,4,6-tetra-O-acetyl-2-cyclopropanoylamino-2-deoxy-α-D-mannopyranose]
- change in mCD62E binding with respect to untreated cells (in words) [1]: no significant change
- MAL-II epitopes in lectin blot [2]: slight increase
- SNA binding on intact cells compared to untreated cells [3]: no significant differences
- decrease in glycoside bound sialic acid levels [4]: ~10%
- ratio of total sialic acids to glycoside bound sialic acids vs untreated cells [4]: higher ratios of free sialic acid
- NeuAz expression with respect to 1c alone (100%) [5]: 60%
- reduction of NeuAz expression with respect to controls [5]: 40%

SMILES: CC(=O)OC[C@H]1OC(OC(C)=O)[C@@H](NC(=O)C2CCC2)[C@@H](OC(C)=O)[C@@H]1OC(C)=O (stereo partly drawn) [Compound 1b, (3S,4R,5S,6R)-6-(acetoxymethyl)-3-(cyclobutanecarboxamido)tetrahydro-2H-pyran-2,4,5-triyl triacetate]
- increase in mCD62E (E-selectin-Fc) binding with respect to untreated cells [1]: 2.3 fold
- MAL-II epitopes in lectin blot [2]: slight increase
- SNA binding on intact cells compared to untreated cells [3]: no significant differences
- decrease in glycoside bound sialic acid levels [4]: ~10%
- ratio of total sialic acids to glycoside bound sialic acids vs untreated cells [4]: higher ratios of free sialic acid
- NeuAz expression with respect to 1c alone (100%) [5]: 55%
- reduction of NeuAz expression with respect to controls [5]: 45%

SMILES: CC(=O)NC1C(OC(C)=O)OC(COC(C)=O)[C@@H](OC(C)=O)[C@@H]1OC(C)=O (stereo partly drawn) [Compound 1d, 1,3,4,6-tetra-O-acetyl-2-acetylamino-2-deoxy-α/β-D-mannopyranose]
- change in mCD62E binding with respect to untreated cells (in words) [1]: no significant change
- MAL-II epitopes in lectin blot [2]: below detection limit
- SNA binding on intact cells compared to untreated cells [3]: no significant differences
- increase in glycoside bound sialic acid levels [4]: ~10%
- increase in total sialic acid levels vs untreated cells [4]: 2.0 fold
- ratio of total sialic acids to glycoside bound sialic acids vs untreated cells [4]: higher ratios of free sialic acid
- NeuAz expression with respect to 1c alone (100%) [5]: 40%
- suppression of NeuAz expression (in words) [5]: Maximum suppression
